# Reference: patent US20220249607A1, “Method of treatment of degenerative diseases caused by membrane channel-forming peptides fragments” (Zarbio, priority 2021, published 2022)
# “Also recorded” adds a separate entry of the source. Read-outs that look alike come from different tables or passages of the source.
# B1: cystatin C (protein, UniProt P01034 27-146, looked up)
# Cystatin-C: SSPGKPPRLVGGPMDASVEEEGVRRALDFAVGEYNKASNDMYHSRALQVVRARKQIVAGVNYFLDVELGRTTCTKTQPNLDNCPFHDQPHLKRKAFCSFQIYAVPWQGTMTLSKSTCQDA
# B2: α1-anti-chymotrypsin (protein, UniProt P01011 24-423, looked up)
# Alpha-1-antichymotrypsin: HPNSPLDEENLTQENQDRGTHVDLGLASANVDFAFSLYKQLVLKAPDKNVIFSPLSISTALAFLSLGAHNTTLTEILKGLKFNLTETSEAEIHQSFQHLLRTLNQSSDELQLSMGNAMFVKEQLSLLDRFTEDAKRLYGSEAFATDFQDSAAAKKLINDYVKNGTRGKITDLIKDLDSQTMMVLVNYIFFKAKWEMPFDPQDTHQSRFYLSKKKWVMVPMMSLHHLTIPYFRDEELSCTVVELKYTGNASALFILPDQDKMEEVEAMLLPETLKRWRDSLEFREIGELYLPKFSISRDYNLNDILLQLGIEEAFTSKADLSGITGARNLAVSQVVHKAVLDVFEEGTEASAATAVKITLLSALVETRTIVRFNRPFLMIIVPTDTQNIFFMSKVTNPKQA
# Experiments:
# [1] = Flow cytometric permeabilization of negatively charged liposomes to calcium; settings: for permeabilization of negatively charged liposomes to calcium: phosphatidylserine liposomes, Fluo-3, flow cytometry
# Source text: To improve the quantitative aspect of studying the permeabilization of liposomes by […], we developed a flow cytometric technique which allowed us to estimate the number of channel-forming units in the solutions of peptide (Zaretsky and Zaretskaia 2020). This number appears extremely small compared to the total amount of peptide. In model conditions, one channel is formed out of approximately 10^12 molecules of Aβ25-35. The low ratio of channels created by the peptide would not allow for the studying of channel formation using typical methods of protein biology, such as spectroscopy or NMR, for the reason that the signal of interest being too low. Even though the proportion of channels is small, when the peptide was added in micromolar concentrations, thousands of permeabilized vesicles could be observed, which makes the power of channel formation biologically relevant.
# (§1) The figure is a composite of data which was presented and analyzed in detail in (Zaretsky and Zaretskaia 2020, Zaretsky and Zaretskaia 2020). Liposomes (400 nm) were made of either phosphatidylserine (A-E, negatively charged lipid) or phosphatidylcholine (F-H, neutral lipid) with added DiD and were extruded in the Ca-free buffer containing 1 mM Fluo-3. After the addition of calcium, aliquots of peptide were added. Ionomycin was used as a positive control. Fluorescence of liposomes was analyzed using a flow cytometer. Each dot at the graph represent a single liposome registered in the flow. The intensity of DiD fluorescence characterizes the amount of membrane material in the liposome, while the fluorescence of Fluo-3 depends on the intraliposomal presence of calcium. […] The liposomes inside rectangle (area R1) are permeabilized, and the number of liposomes which were counted to be within the area is shown.
# [2] = Flow cytometric permeabilization of neutral liposomes to calcium; settings: phosphatidylcholine liposomes, Fluo-3, flow cytometry
# Procedure: as §1
# [3] = cited from earlier work
# [4] = test system: Aβ-induced apoptosis in the brain; settings: rat brain, cited from earlier work; for effect on Aβ-induced apoptosis (TUNEL) / effect on accumulation of Aβ immunoreactivity / amyloid: simultaneous i.c.v. infusion with Aβ; for effect on apoptosis by the inhibitor itself (spontaneous apoptosis): without Aβ, TUNEL
# amyloid channels = amyloid channels (Homo sapiens, UniProt P05067); settings: cited from earlier work
# [5] = test system: lysosomes of cells loaded with Lucifer Yellow; settings: 20 hours incubation; Ji, Miranda et al. 2002; cited from earlier work
# [6] = test system: Aβ1-42-induced drop of cell survival; settings: Tizon, Ribe et al. 2010; cited from earlier work
# Aβ1-42 toxicity = settings: cited from earlier work
# [7] = test system: 15 cells derived from pancreatic islets of Langerhans; settings: cited from earlier work; for effect on beta-amyloid-induced drop in cell viability: MTT, stated for both cell lines
# [8] = test system: 15 cells derived from pancreatic islets of Langerhans; settings: cited from earlier work
# [9] = study of Aksenov, Aksenova et al. 1996
# amyloid channels, sequence (P05067 672-713 limits assumed): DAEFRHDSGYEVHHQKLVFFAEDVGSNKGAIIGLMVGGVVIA
molecule,measurement,setting,value
"Aβ25-35: positively charged short channel-forming fragment of beta-amyloid (GSNKGAIIGLM; Amyloid-beta protein 42; UniProt P05067 696-706, looked up, fragment)",number of peptide molecules out of which one channel is formed,[1]; model conditions,approximately 10^12 molecules
same,permeabilization of negatively charged liposomes to calcium,[1],creates multiple liposomes permeable to calcium
same,permeabilization of neutral liposomes to calcium,[2],does not permeabilize liposomes; also recorded: not permeabilized
same,percentage of channels with a conductance,"[3]; acidic pH (pH 5.0), 20 μM peptide",more than 30%
same,conductance of formed channels,[3]; upper end of conductance,up to 1 nS
aprotinin,effect on Aβ-induced apoptosis (TUNEL),[4],prevented Aβ-induced apoptosis
same,effect on accumulation of Aβ immunoreactivity / amyloid,[4],did not exacerbate intracellular accumulation of amyloid
same,effect on apoptosis by the inhibitor itself (spontaneous apoptosis),[4],tends to decrease even spontaneously occurring apoptosis
CC(=O)N[C@@H](CC(C)C)C(=O)N[C@@H](CC(C)C)C(=O)N[C@H](C=O)CCCNC(=N)N [leupeptin],effect on Aβ-induced apoptosis (TUNEL),[4],promoted apoptosis
same,effect on accumulation of Aβ immunoreactivity / amyloid,[4],promoted
same,effect on apoptosis by the inhibitor itself (spontaneous apoptosis),[4],tends to increase apoptosis by itself
NC(CO)(CO)CO [tromethamine],blockade of smaller amyloid channels,amyloid channels; channels <400 pS,effectively blocked
same,blockade of giant amyloid channels,amyloid channels; super-high conductance channels >1 nS,less effective
C[C@H](CCC(=O)O)C[C@H](C)C[C@H](C)C(=O)/C=C(\O)[C@H](C)C[C@H](C)C/C=C/[C@@H](C)[C@@H](O)[C@@H](C)[C@@H](O)C[C@@H]1CC[C@@](C)([C@H]2CC[C@@](C)([C@@H](C)O)O2)O1 [ionomycin],permeabilization of negatively charged liposomes to calcium,[1],permeabilizes liposomes
same,permeabilization of neutral liposomes to calcium,[2],permeabilizes thousands of liposomes
Aβ1-42: full-length amyloid peptide,permeabilization of negatively charged liposomes to calcium,[1],ineffective in the permeabilization of the membranes; also recorded: does not permeabilize liposomal membranes
same,pattern of Lucifer Yellow fluorescence in cells (lysosomal permeabilization),[5],diffuse intracellular pattern of fluorescence
"Aβ22-35: longer beta-amyloid fragment without positive overall charge, non-channel-forming (EDVGSNKGAIIGLM; Amyloid-beta protein 42; UniProt P05067 693-706, looked up, fragment)",permeabilization of negatively charged liposomes to calcium,[1],does not create a noticeable number of channels; also recorded: does not permeabilize liposomes
B1,effect on drop of cell survival induced by Aβ1-42,[6],prevented the drop of cell survival
B2,effect on Aβ1-42 toxicity,Aβ1-42 toxicity; [9],attenuated Aβ1-42 toxicity
same,effect on fibril formation,Aβ1-42 toxicity; [9],without affecting fibril formation
same,effect on Aβ toxicity,"Aβ1-42 toxicity; study of Ma, Brewer et al. 1996",not effective
same,effect on beta-amyloid-induced drop in cell viability,[7],can protect against Aβ-induced drop in cell viability
same,effect on beta-amyloid-induced drop in cell viability,[7]; listed as α1-anti-chymotrypsin,prevented
same,effect of further increase of concentration on protection against beta-amyloid,"[7]; above optimal dose, both cell lines",disappearance of protection
same,protection against beta-amyloid-induced drop in cell viability,"[7]; in some conditions, stated for both cell lines (15 cells, cortical cultures)",≤ 100%
same,effect on amylin-induced drop in cell viability,"[8]; MTT, listed as anti-chymotrypsin",prevent amylin-induced cellular toxicity
same,effect on amylin-induced drop in cell viability,"[8]; MTT, listed as α1-anti-chymotrypsin",prevented
same,protection against amylin,[8]; MTT,< 100%
same,effect of further increase of concentration on protection against amylin,[8]; above optimal dose,significantly decreased the protective effect
